We go through one sequence from publication PMC5104426, “Screening a Phage Display Library for Two Novel OmpU-Binding Peptides with Adhesion Antagonistic Activity against Vibrio mimicus” (PLoS ONE, 2016).

Assay [1] concerns rOmpU fusion protein adhesion to EPC cells. The assay can be described thus: Fluorescence-based adhesion assay: rOmpU protein adhesion to EPC cells. To be noted: 500 μg/mL peptide mixed with equal volume of 500 μg/mL rOmpU, 1 h 28°C, then 1 h on fixed EPC cells; anti-OmpU/FITC immunofluorescence; triplicate. The assay is classed as cell-based, Vibrio mimicus. As to the method:
Synthetic OmpU-binding peptides were measure for their ability to antagonize OmpU protein adhesion to EPC cells by fluorescence-based adhesion assay. Briefly, EPC cells (1 × 10^6 cells/mL) were seeded in 24-well cell plate containing coverslip (Corning, NY, USA) and cultured to 80% confluence. The cells were gently washed 3 times with PBS and fixed with 4% paraformaldehyde at room temperature for 15 min. After 3 washes with PBS, cells were permeabilized with 0.5% Triton X-100 (500 μL/well) for 15 min. The cells were then washed 3 times with PBS and blocked with 2% BSA for 30 min. Subsequently, 500 μg/mL of each OmpU-binding peptide or irrelevant control peptide (used as negative control) solution were respectively mixed with an equal volume of 500 μg/mL rOmpU fusion protein, and the mixture was incubated for 1 h at 28°C and added to each well. The plates were incubated for 1 h at 28°C. After 3 washes, purified rabbit anti-OmpU antibody (prepared in our previous studies) at a dilution of 1:200 in PBS was added to each well and incubated for 1 h at 28°C, followed by 3 washes in PBS. A 1:100 dilution of FITC (fluorescein isothiocyanate)-labeled goat anti-rabbit IgG (Jackson ImmunoResearch Laboratories, Inc., USA) was added to each well and incubated in the dark for 1 h. After 3 washes in PBS, 4,6-Diamidino-2-phenylindole dihydrochloride (DAPI; Ziyi Reagent Co., Shanghai, China) was used to stain the nucleus, and the coverslips were observed under a fluorescence microscope. Each experiment was performed in triplicate, each sample being tested in three wells.

For assay [2], the system named is V. mimicus 04–14 isolate adhesion to EPC cells. The assay can be described thus: Peptide adhesion inhibition test: V. mimicus adhesion to EPC cells. It counts as cell-based, Vibrio mimicus. The settings on record: 500 μg/mL peptide mixed with equal volume of V. mimicus 04–14 (2 × 10^7 CFU/mL), 1 h 28°C, then 1 h on EPC cells, crystal violet, 30 cells counted, mean ± SD, triplicate. The procedure: When EPC cells grown in 24-well plate containing coverslips formed a confluent monolayer, the medium was changed to RPMI-1640 medium without serum and antibiotics for 2 h. Subsequently, 500 μg/mL of each OmpU-binding peptide or unrelated control peptide solution were respectively mixed with an equal volume of V. mimicus isolate 04–14 suspension (2 × 10^7 CFU/mL) and incubated for 1 h at 28°C. The mixture was added to each well, and then the plates were incubated for 1 h at 28°C. After 3 times washes, EPC cells were fixed with cooled methanol for 10 min, stained with crystal violet and examined under a light microscope at a magnification of ×1,000. Thirty cells were randomly selected to count the number of adhering bacterial per slide. Each experiment was performed in triplicate, with each sample being repeated in 3 cell wells.

As to TGYICDEMFCKL [P3], the “green fluorescence on the surface of EPC cells (surface-retained rOmpU)” value in assay [1] was “Obvious green fluorescence”. The “average number of adhesion around each cell” value in assay [2] amounted to 20.2 ± 0.5.
